Values quoted from earlier work, collected in paper PMC6472032 (Marine Drugs, 2019).

Conditions: in vivo; cited from earlier work

Substance: desmopressin
- mean terminal half-life: 3.7 h
